From patent US9522888B2, “Substituted bicyclic compounds” (BRISTOL-MYERS SQUIBB COMPANY, priority 2014, dated 2016)

Key:
human S1P1 = human S1P1 (Homo sapiens (Human), UniProt P21453); experiment: S1P1 binding assay (33P-S1P radioligand competition, CHO cell membranes); conditions: phosphate examples; read-out: S1P1 Binding
How it was run: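 Radioligand is 33P-S1P, competing for membranes from human S1P1-expressing CHO cells. Membranes resuspended in 50 mM HEPES pH 7.5, 100 mM NaCl, 1 mM MgCl2, 2 mM EDTA.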

hS1P1/CHO cells = hS1P1/CHO cells (Homo sapiens (Human), UniProt P21453); experiment: hS1P1 ERK phosphorylation (S1P1 pERK); type: cell-based; conditions: phosphate examples
Sequence of hS1P1/CHO cells (P21453 whole entry): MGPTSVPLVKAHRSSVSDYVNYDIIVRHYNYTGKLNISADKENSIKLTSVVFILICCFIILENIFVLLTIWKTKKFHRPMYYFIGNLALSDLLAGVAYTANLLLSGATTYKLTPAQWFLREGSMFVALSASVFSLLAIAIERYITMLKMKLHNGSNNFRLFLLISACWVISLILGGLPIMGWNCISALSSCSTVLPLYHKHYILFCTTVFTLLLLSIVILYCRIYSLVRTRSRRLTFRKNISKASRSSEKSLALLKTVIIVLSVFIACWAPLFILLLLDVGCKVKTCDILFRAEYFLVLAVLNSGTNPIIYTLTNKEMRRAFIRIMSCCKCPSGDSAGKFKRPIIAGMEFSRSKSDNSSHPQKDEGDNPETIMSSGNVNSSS
How it was run: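 CHO cells expressing human S1P1, serum-starved 2 h, exposed to compound in HBSS/20 mM HEPES for 7 min at 37° C. Lysates assayed for phospho-ERK by SureFire kit; response given as % activation relative to 10 μM S1P.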

[1] = target: S1P1 (membranes prepared from S1P1/CHO cells) (Homo sapiens (Human), UniProt P21453); experiment: Receptor [35S] GTPγS binding assay (S1P1 GTPγS); type: biochemical; conditions: phosphate examples; read-out: S1P1 GTPγS
Sequence of S1P1 (membranes prepared from S1P1/CHO cells) (P21453 whole entry): as above
How it was run: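 Membranes from S1P1-expressing CHO cells (3 μg protein/well) incubated with compound (11-point, 3-fold dilution) and 0.2 nM final [35S]GTPγS, 45 min at room temperature. Assay buffer: 20 mM HEPES pH 7.5, 10 mM MgCl2, 150 mM NaCl, 10 μM GDP, 0.1% fatty-acid-free BSA, 10 μg/ml saponin. Filter-bound radioactivity counted by scintillation; EC50 derived.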

[2] = target: S1P3 (membranes prepared from EDG3-Gal5-bla HEK293T cells) (Homo sapiens (Human), UniProt Q99500); experiment: Receptor [35S] GTPγS binding assay (S1P3 GTPγS); type: biochemical; conditions: phosphate examples; read-out: S1P3 GTPγS
Sequence of S1P3 (membranes prepared from EDG3-Gal5-bla HEK293T cells) (Q99500 whole entry): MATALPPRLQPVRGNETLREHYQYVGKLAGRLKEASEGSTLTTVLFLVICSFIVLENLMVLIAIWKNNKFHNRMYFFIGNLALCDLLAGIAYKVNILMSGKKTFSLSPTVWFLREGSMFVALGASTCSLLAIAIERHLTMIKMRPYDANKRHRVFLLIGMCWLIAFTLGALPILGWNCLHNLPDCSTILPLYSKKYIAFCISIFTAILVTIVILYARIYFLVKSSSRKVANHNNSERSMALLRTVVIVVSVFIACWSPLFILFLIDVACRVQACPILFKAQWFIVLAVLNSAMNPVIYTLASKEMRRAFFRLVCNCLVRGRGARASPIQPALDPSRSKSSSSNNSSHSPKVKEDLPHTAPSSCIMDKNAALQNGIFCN
How it was run: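 Membranes (3 μg protein/well) from S1P1/CHO cells or EDG3-Gal5-bla HEK293T cells (S1P3) were incubated 45 min at room temperature with 0.2 nM final [35S]GTPγS in HEPES pH 7.5 buffer with 10 μM GDP, MgCl2 and saponin. Bound label counted after filtration; EC50 from 11-point, 3-fold dilutions.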

Sequence of human S1P1 (P21453 whole entry): as the sequence (P21453 whole entry) above

| SMILES | IC50 (human S1P1) [nM] | EC50 (hS1P1/CHO cells) [nM] | EC50 [1] [nM] | EC50 [2] [nM] |
| --- | --- | --- | --- | --- |
| CCCCSC[C@@H]1CCc2cc([C@@H]3CC[C@](N)(COP(=O)(O)O)C3)ccc2C1 [compound 506] | < 10 | < 10 | < 10 | > 625 |
| N[C@]1(COP(=O)(O)O)CC[C@@H](c2ccc3c(c2)CC[C@H](CSc2ccccc2)C3)C1 [compound 507] | 100 to 1000 | 10 to 100 | 100 to 1000 | > 625 |
| N[C@]1(COP(=O)(O)O)CC[C@@H](c2ccc3c(c2)CC[C@@H](CSc2ccccc2)C3)C1 [compound 508] | 10 to 100 | 10 to 100 | 100 to 1000 | > 625 |
| CC(C)CSC[C@H]1CCc2cc([C@H]3CC[C@](N)(COP(=O)(O)O)C3)ccc2C1 [compound 509] | 10 to 100 | < 10 | 10 to 100 | > 625 |
| CC(C)CCSC[C@@H]1CCc2cc([C@H]3CC[C@](N)(COP(=O)(O)O)C3)ccc2C1 [compound 510] | < 10 | < 10 | 10 to 100 | > 625 |
| CC(C)CCSC[C@H]1CCc2cc([C@H]3CC[C@](N)(COP(=O)(O)O)C3)ccc2C1 [compound 511] | < 10 | < 10 | 10 to 100 | > 625 |
| CCCCCSC[C@H]1CCc2cc([C@H]3CC[C@](N)(COP(=O)(O)O)C3)ccc2C1 [compound 512] | < 10 | 10 to 100 | < 10 | > 625 |
| CCCCCSC[C@@H]1CCc2cc([C@H]3CC[C@](N)(COP(=O)(O)O)C3)ccc2C1 [compound 513] | < 10 | < 10 | 10 to 100 | > 625 |
| CC(C)(C)CSC[C@H]1CCc2cc([C@H]3CC[C@](N)(COP(=O)(O)O)C3)ccc2C1 [compound 514] | < 10 | 10 to 100 | 10 to 100 | > 625 |
| CC(C)(C)CSC[C@@H]1CCc2cc([C@H]3CC[C@](N)(COP(=O)(O)O)C3)ccc2C1 [compound 515] | 10 to 100 | < 10 | 10 to 100 | > 625 |
| N[C@]1(COP(=O)(O)O)CC[C@H](c2ccc3c(c2)CC[C@@H](CSc2cccnc2)C3)C1 [compound 516] | 10 to 100 | < 10 | 10 to 100 | > 625 |
| N[C@]1(COP(=O)(O)O)CC[C@H](c2ccc3c(c2)CC[C@@H](CSc2ccncc2)C3)C1 [compound 517] | 10 to 100 | < 10 | 10 to 100 | > 625 |
| CC(C)(C)CCSC[C@H]1CCc2cc([C@H]3CC[C@](N)(COP(=O)(O)O)C3)ccc2C1 [compound 518] | < 10 | < 10 | < 10 | > 625 |
| CC(C)(C)CCSC[C@@H]1CCc2cc([C@H]3CC[C@](N)(COP(=O)(O)O)C3)ccc2C1 [compound 519] | < 10 | < 10 | < 10 | > 625 |
| Cc1ccccc1SC[C@@H]1CCc2cc([C@H]3CC[C@](N)(COP(=O)(O)O)C3)ccc2C1 [compound 520] | 10 to 100 | 10 to 100 | 10 to 100 | > 625 |
| N[C@]1(COP(=O)(O)O)CC[C@H](c2ccc3c(c2)CC[C@H](CSCCc2ccccc2)C3)C1 [compound 521] | < 10 | 10 to 100 | < 10 | > 50 |
| N[C@]1(COP(=O)(O)O)CC[C@H](c2ccc3c(c2)CC[C@@H](CSCCc2ccccc2)C3)C1 [compound 522] | < 10 | 10 to 100 | 10 to 100 | > 625 |
| Cc1cccc(C)c1SC[C@@H]1CCc2cc([C@H]3CC[C@](N)(COP(=O)(O)O)C3)ccc2C1 [compound 523] | 10 to 100 | 10 to 100 | 100 to 1000 | > 625 |
| N[C@]1(COP(=O)(O)O)CC[C@H](c2ccc3c(c2)CC[C@@H](CSCCc2ccccn2)C3)C1 [compound 524] | 10 to 100 | < 10 | < 10 | > 625 |
| N[C@]1(COP(=O)(O)O)CC[C@H](c2ccc3c(c2)CC[C@@H](CSCCc2ccncc2)C3)C1 [compound 525] | < 10 | < 10 | 10 to 100 | > 625 |
| N[C@]1(COP(=O)(O)O)CC[C@H](c2ccc3c(c2)CC[C@H](CSCCc2cnccn2)C3)C1 [compound 526] | 10 to 100 | < 10 | 10 to 100 | > 625 |

| SMILES | IC50 (human S1P1) [nM] | EC50 (hS1P1/CHO cells) [nM] | EC50 [1] [nM] | EC50 [2] [nM] |
| --- | --- | --- | --- | --- |
| COc1ccccc1SC[C@@H]1CCc2cc([C@H]3CC[C@](N)(COP(=O)(O)O)C3)ccc2C1 [compound 527] | < 10 | < 10 | < 10 | > 625 |
| COc1cccc(SC[C@@H]2CCc3cc([C@H]4CC[C@](N)(COP(=O)(O)O)C4)ccc3C2)c1 [compound 528] | 10 to 100 | 10 to 100 | 100 to 1000 | > 625 |
| COc1ccc(SC[C@@H]2CCc3cc([C@H]4CC[C@](N)(COP(=O)(O)O)C4)ccc3C2)cc1 [compound 529] | < 10 | < 10 | 10 to 100 | > 625 |
| CC(C)c1ccccc1SC[C@@H]1CCc2cc([C@H]3CC[C@](N)(COP(=O)(O)O)C3)ccc2C1 [compound 530] | 10 to 100 | 10 to 100 | < 10 | > 625 |
| COc1ccc(SC[C@@H]2CCc3cc([C@H]4CC[C@](N)(COP(=O)(O)O)C4)ccc3C2)cc1OC [compound 531] | 10 to 100 | 10 to 100 | 10 to 100 | > 625 |
| CCCSC[C@H]1CCc2cc([C@H]3CC[C@](N)(COP(=O)(O)O)C3)ccc2C1 [compound 532] | < 10 | < 10 | < 10 | > 625 |
| CCSCC[C@@H]1CCc2cc([C@H]3CC[C@](N)(COP(=O)(O)O)C3)ccc2C1 [compound 533] | < 10 | < 10 | < 10 | > 625 |
| CCCSCC[C@H]1CCc2cc([C@H]3CC[C@](N)(COP(=O)(O)O)C3)ccc2C1 [compound 534] | < 10 | 10 to 100 | < 10 | > 625 |
| CCCSCC[C@@H]1CCc2cc([C@H]3CC[C@](N)(COP(=O)(O)O)C3)ccc2C1 [compound 535] | < 10 | < 10 | < 10 | > 625 |
| CC(C)SCC[C@H]1CCc2cc([C@H]3CC[C@](N)(COP(=O)(O)O)C3)ccc2C1 [compound 536] | < 10 | < 10 | 10 to 100 | > 625 |
| CC(C)SCC[C@@H]1CCc2cc([C@H]3CC[C@](N)(COP(=O)(O)O)C3)ccc2C1 [compound 537] | < 10 | < 10 | < 10 | > 625 |
| CC(C)CSCC[C@@H]1CCc2cc([C@H]3CC[C@](N)(COP(=O)(O)O)C3)ccc2C1 [compound 538] | < 10 | < 10 | < 10 | > 625 |
| CC(C)CSCC[C@H]1CCc2cc([C@H]3CC[C@](N)(COP(=O)(O)O)C3)ccc2C1 [compound 539] | < 10 | < 10 | < 10 | > 625 |
| COCC[C@@H]1CCc2cc([C@H]3CC[C@](N)(COP(=O)(O)O)C3)ccc2C1 [compound 540] | < 10 | < 10 | 100 to 1000 | > 625 |
| CCOCC[C@@H]1CCc2cc([C@H]3CC[C@](N)(COP(=O)(O)O)C3)ccc2C1 [compound 541] | < 10 | < 10 | 10 to 100 | > 625 |
| COc1cccc(OCC[C@@H]2CCc3cc([C@H]4CC[C@](N)(COP(=O)(O)O)C4)ccc3C2)c1 [compound 544] | 10 to 100 | < 10 | 100 to 1000 | > 625 |
| COc1cccc(OCC[C@H]2CCc3cc([C@H]4CC[C@](N)(COP(=O)(O)O)C4)ccc3C2)c1 [compound 545] | 10 to 100 | < 10 | 10 to 100 | > 625 |
| COc1ccc(C[C@@H]2CCc3cc([C@H]4CC[C@](N)(COP(=O)(O)O)C4)ccc3C2)c(C)c1 [compound 546] | 100 to 1000 | 10 to 100 | 100 to 1000 | > 625 |
| CCOc1ccc(C[C@H]2CCc3cc([C@H]4CC[C@](N)(COP(=O)(O)O)C4)ccc3C2)cc1 [compound 547] | < 10 | 10 to 100 | 10 to 100 | > 625 |
| CCOc1cccc(C[C@H]2CCc3cc([C@H]4CC[C@](N)(COP(=O)(O)O)C4)ccc3C2)c1 [compound 548] | 10 to 100 | < 10 | 10 to 100 | > 625 |
| CCOc1ccc(C[C@@H]2CCc3cc([C@H]4CC[C@](N)(COP(=O)(O)O)C4)ccc3C2)cc1 [compound 549] | 100 to 1000 | < 10 | 100 to 1000 | > 625 |
